Data from US20190389963A1, “COMBINATION THERAPY BY USING ANTI-GLOBO H OR ANTI-SSEA-4 ANTIBODY WITH ANTI-NEGATIVE IMMUNE CHECK POINTS ANTIBODY” (OBI Pharma, Inc., priority 2018, published 2019).

Columns and labels:
[1] = test system: PD-1 Effector Cells with PD-L1+ target cells (TCR signaling); assay: PD-1/PD-L1 Blockade Bioassay with GHCer or SSEA4Cer treated PD-1 Effector Cells; type: cell-based; details: various concentration of ceramide on PD-1 Effector Cells 24 hours, 6 hours with PD-L1+ cells; FIG. 6 as printed
Protocol: Various concentration of GHCer or SSEA4Cer was incubated with PD-1 Effector Cells (PD-1/PD-L1 Blockade Bioassay Kit, Promega, Cat# J3011), then incubate for 24 hours at 37° C. PD-L+ target cells (PD-1/PD-L1 Blockade Bioassay Kit, Promega, Cat# J3011) were seeded in 96 well plate and incubate for 24 hours at 37° C. with 5% CO2. The growth medium from the plate coated PD- L1+ cells was replaced by the GHCer or SSEA4Cer/Effector cells R×n and incubated for 6 hours. Plate was removed to ambient temperature for 10 mins. Bio-Glo™ Reagent was added and incubate for 15 mins then read by luminometer.

[2] = test system: Jurkat/NFAT-Re Luc cells; assay: Jurkat/NFAT-Re Luc T cell activation by Anti-CD3/CD28, luciferase reporter, after pre-incubation with Globo series ceramides; type: cell-based, human; details: various concentrations of ceramide, pre-incubated 18-24 hours; 6 hours activation; FIG. 2
Protocol: Jurkat/NFAT-Re Luc cells (Promega, Inc., Cat# G7102) were pre-incubated with or without various concentrations of chemically synthesized Globo H ceramide (GHCer) or SSEA-4 ceramide (SSEA4Cer) for 18-24 hours in 48-well culture plate. Cells were collected and transferred to white, flat-bottom 96-well assay plates (Greiner Bio-One GmbH, Cat#655073) coated overnight with Anti-human CD3 (100 ng/well) (BioLegend, Inc. Cat#317326), and Anti-human CD28 (300 ng/well) (BioLegend, Inc. Cat#302914) in 37° C. incubator for a 6 hours activation. Assay plates were removed from the incubator and equilibrated to room temperature (22-25° C.) for 15 minutes. 75 μL of Bio-Glo™ Luciferase Assay Reagent (Promega, Inc. Cat#G7940) was added and incubated the plates at RT for 15 minutes. Luminescence was measured using a microplate reader SpectraMax L (Molecular Devices, LLC.). The Photomultiplier Tube (PMT) sensitivity was set as autorange and calibrated at 570 nm. Fold of induction was calculated by RLUactivated/RLUunstimulated.

[3] = test system: PD-1/PD-L1 engagement inhibited TCR signaling (PD-1 Effector Cells, PD-L1+ target cells); assay: PD-1/PD-L1 Blockade Bioassay, SSEA4Cer treated effector cells with Keytruda or Tecentriq; type: cell-based; details: 6 hours, FIG. 8; for Release of PD-1/PD-L1 engagement inhibited TCR signaling by checkpoint antibody: 2 μM antibody, effector cells with 40 μM SSEA4Cer
Protocol: (§1) 40 μM SSEA4Cer was incubated with PD-1 Effector Cells (PD-1/PD-L1 Blockade Bioassay Kit, Promega, Cat# J3011), then incubate for 24 hours at 37° C. with 5% CO2. PD-L1+ target cells were seeded in 96 well plate and incubate for 24 hours at 37° C. with 5% CO2. The growth medium from the plates coated PD-L+ cells was replaced by the SSEA4Cer/Effector cells R×n with 2 μM Keytruda, the Anti-PD-1 mAb, or 2 μM Tecentriq, the Anti-PD-L1 mAb, and incubate for 6 hours at 37° C. with 5% CO2. Plate was removed to ambient temperature for 10 mins. Bio-Glo™ Reagent was added and incubate for 15 mins then read by luminometer.

[4] = test system: GHCer and PD-1/PD-L1 engagement inhibited TCR signaling (PD-1 Effector Cells, PD-L1+ target cells); assay: PD-1/PD-L1 Blockade Bioassay, GHCer pre-incubated with OBI-888, combined with Keytruda or Tecentriq; type: cell-based; details: 10 μM OBI-888 with GHCer 4 hours; 2 μM Keytruda or 2 μM Tecentriq, 6 hours; FIG. 10 as printed
Protocol: (§2) GHCer were incubated with 10 μM OBI-888 in assay medium containing 99% RPMI 1640/1% FBS (PD-1/PD-L1 Blockade Bioassay Kit, Promega, Cat# J3011) at 37° C. for 4 hours. Samples were centrifuged at 8000×g for 5 minutes twice and supernatant were harvested and incubated with PD-1 Effector Cells for 24 hours. PD-L1+ target cells were seeded in 96 well plate and incubate for 24 hours at 37° C. with 5% CO2. The growth medium from the plates coated PD- L1 cells was replaced by the GHCer/Effector cells R×n with 2 μM Keytruda or 2 μM Tecentriq and incubate for 6 hours at 37° C. with 5% CO2. Plate was removed to ambient temperature for 10 mins. Bio-Glo™ Reagent was added and incubate for 15 mins then read by luminometer.

[5] = test system: PD-1/PD-L1 engagement inhibited TCR signaling (PD-1 Effector Cells, PD-L1+ target cells); assay: PD-1/PD-L1 Blockade Bioassay, GHCer treated effector cells with Keytruda or Tecentriq; type: cell-based; details: 6 hours, FIG. 7; for Release of PD-1/PD-L1 engagement inhibited TCR signaling by checkpoint antibody: 2 μM antibody, effector cells with 40 μM GHCer
Protocol: as §1, with “40 μM GHCer was incubated” for “40 μM SSEA4Cer was incubated”, “by the GHCer/Effector cells R×n” for “by the SSEA4Cer/Effector cells R×n”, “or 2 lμM Tecentriq, the” for “or 2 μM Tecentriq, the”

[6] = test system: SSEA4Cer and PD-1/PD-L1 engagement inhibited TCR signaling (PD-1 Effector Cells, PD-L1+ target cells); assay: PD-1/PD-L1 Blockade Bioassay, SSEA4Cer pre-incubated with OBI-898, combined with Keytruda or Tecentriq; type: cell-based; details: 5 μM OBI-898 with SSEA4Cer 4 hours; 2 μM Keytruda or 2 μM Tecentriq, 6 hours; FIG. 11 as printed
Protocol: as §2, with “SSEA4Cer were” for “GHCer were”, “with 5” for “with 10”, “μM OBI-898” for “μM OBI-888”, “medium” for “medium containing 99% RPMI 1640/1% FBS (PD-1/PD-L1 Blockade Bioassay Kit, Promega, Cat# J3011)”, “hours. PD-L+” for “hours. PD-L1+”, “the SSEA4Cer/Effector” for “the GHCer/Effector”

Row | Substance | Suppression of TCR activation signaling pathway together with PD-1/PD-L1 engagement [1] | Jurkat T cell activation to Anti-CD3/28 stimulation (fold of induction, RLUactivated/RLUunstimulated) [2] | Effect of SSEA4Cer incorporation on Keytruda or Tecentriq released TCR signaling ([3]; 40 μM SSEA4Cer on effector cells 24 hours, 2 μM Keytruda or 2 μM Tecentriq) | Rescue of GHCer and PD-1/PD-L1 engagement inhibited TCR signaling by combination [4] | Release of PD-1/PD-L1 engagement inhibited TCR signaling by checkpoint antibody [3] | Release of PD-1/PD-L1 engagement inhibited TCR signaling by checkpoint antibody [5] | Rescue of SSEA4Cer and PD-1/PD-L1 engagement inhibited TCR signaling by combination [6] | Effect of GHCer incorporation on Keytruda or Tecentriq released TCR signaling ([5]; 40 μM GHCer on effector cells 24 hours, 2 μM Keytruda or 2 lμM Tecentriq)
1 | SSEA-4 ceramide [SSEA4Cer] | acts synergistically with PD-1/PD-L1 engagement to suppress the TCR activation signaling pathway | suppress the Jurkat T cell activation to Anti-CD3/28 stimulation in a dose dependent manner | reduced Keytruda or Tecentriq released PD-1/PD-L1 engagement inhibited TCR signaling | – | – | – | – | –
2 | Keytruda: the Anti-PD-1 mAb; MSD Ireland, Lot 7302614A13 | – | – | – | acts synergistically with Keytruda | released PD-1/PD-L1 engagement inhibited TCR signaling | released PD-1/PD-L1 engagement inhibited TCR signaling | acts synergistically with Keytruda | –
3 | Tecentriq: the Anti-PD-L1 mAb; Roche, Lot H0125B11 | – | – | – | synergistically with Keytruda or Tecentriq | released PD-1/PD-L1 engagement inhibited TCR signaling | released PD-1/PD-L1 engagement inhibited TCR signaling | synergistically with Keytruda or Tecentriq | –
4 | Globo H ceramide [GHCer] | acts synergistically with PD-1/PD-L1 engagement to suppress the TCR activation signaling pathway | suppress the Jurkat T cell activation to Anti-CD3/28 stimulation in a dose dependent manner | – | – | – | – | – | reduced Keytruda or Tecentriq released PD-1/PD-L1 engagement inhibited TCR signaling
